Experimental data published in patent US20230027066A1 (Urovant Sciences GmbH, priority 2019, published 2023).

What was measured:
CYP2D6 = CYP2D6 (Homo sapiens, UniProt P10635); test: drug interaction study of vibegron and tolterodine (sensitive CYP2D6 substrate); settings: vibegron 100 mg QD at steady state
[1] = QTc study comparison mirabegron and vibegron, BP and HR in healthy subjects; assay type: in vivo, human; settings: for HR change at Cmax, placebo adjusted / SBP change 24-hour average, placebo adjusted / SBP change at Cmax, placebo adjusted: healthy subjects
[2] = Phase 2b study, vital sign (HR, SBP, DBP) changes and orthostatic AEs; assay type: in vivo, human
Excerpt: None led to discontinuation. The overall incidence of orthostatic symptoms was low.
Small differences in the percent of subjects exceeding categorical heart rate and blood pressure thresholds for vibegron were similar to those in the tolterodine arm.

[3] = Phase 3 study (75 mg), post-void residual urine volume (PVR); assay type: in vivo, human
Excerpt: The risk of acute urinary retention or morbidities related to an increase in Post-Void Residual (PVR) is a concern with antimuscarinic therapy that promotes smooth muscle relaxation by inhibiting acetylcholine-induced smooth muscle contraction. If, during contraction, the bladder cannot generate enough pressure to overcome the outlet resistance in the urethra, either because of poor detrusor contractility or profound obstruction (most commonly from BPH), acute urinary retention or incomplete emptying of the bladder may result.
The volume of urine that remains in the bladder after voiding (PVR) is an objective measurement that may serve as a proxy for impaired ability to void.
PVR were performed via ultrasound at the visits indicated in the Schedule of Activities.

[4] = thorough QT study, single doses of 200 and 400 mg, healthy volunteers; assay type: in vivo, human
[5] = Males with medical history of BPH

Chain of CYP2D6 (P10635 whole entry): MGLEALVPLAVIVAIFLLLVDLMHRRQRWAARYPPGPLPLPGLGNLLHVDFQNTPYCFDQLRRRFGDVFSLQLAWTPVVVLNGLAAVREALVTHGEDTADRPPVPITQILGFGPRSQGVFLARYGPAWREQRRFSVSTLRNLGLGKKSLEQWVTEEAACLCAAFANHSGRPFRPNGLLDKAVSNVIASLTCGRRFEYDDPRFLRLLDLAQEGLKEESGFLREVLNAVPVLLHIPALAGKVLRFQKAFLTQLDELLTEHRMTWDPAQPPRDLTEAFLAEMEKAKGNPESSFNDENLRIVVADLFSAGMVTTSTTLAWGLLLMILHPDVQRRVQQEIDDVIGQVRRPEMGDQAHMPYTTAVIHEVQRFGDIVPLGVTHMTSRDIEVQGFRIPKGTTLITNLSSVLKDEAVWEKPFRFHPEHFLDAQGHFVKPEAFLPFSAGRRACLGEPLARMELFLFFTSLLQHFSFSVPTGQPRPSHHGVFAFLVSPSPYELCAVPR

O=C(Nc1ccc(C[C@@H]2CC[C@H]([C@H](O)c3ccccc3)N2)cc1)[C@@H]1CCc2nccc(=O)n21 [Vibegron, (6S)-N-[4-[[(2S,5R)−5-[(R)-hydroxy(phenyl)methyl]pyrrolidin−2-yl]methyl]phenyl]−4-oxo−7,8-dihydro−6H-pyrrolo[1,2-a]pyrimidine−6-carboxamide]
inhibition of CYP2D6 (conclusion from tolterodine interaction study) (CYP2D6): does not inhibit CYP2D6 | SBP change 24-hour average, 75 mg estimate, placebo adjusted ([1]; 75 mg estimate from QT study): 24-hour average: 0.1 mmHg | SBP change at Cmax, 75 mg estimate, placebo adjusted ([1]; 75 mg estimate from QT study): At Cmax: 0.4 mmHg | HR change at Cmax, placebo adjusted ([1]; 200 mg single-dose): 4.1 BPM | SBP change 24-hour average, placebo adjusted ([1]; 200 mg single-dose): +0.7 mmHg | SBP change at Cmax, placebo adjusted ([1]; 200 mg single-dose): +2.2 mmHg | HR change at Cmax, placebo adjusted ([1]; 400 mg single-dose): 11.2 BPM | SBP change 24-hour average, placebo adjusted ([1]; 400 mg single-dose): 1.3 mmHg | SBP change at Cmax, placebo adjusted ([1]; 400 mg single-dose): +3.97 mmHg | DBP change from baseline, mean (95% CI) maximum, week 1 to 8 ([2]; vibegron 3 mg): 5.03 (3.92, 6.15) mm Hg | DBP change from baseline, mean (95% CI), week 1 ([2]; vibegron 3 mg): −0.37 (−1.69, 0.95) mm Hg | HR change from baseline, mean (95% CI) maximum, week 1 to 8 ([2]; vibegron 3 mg): 5.57 (4.25, 6.90) bpm | HR change from baseline, mean (95% CI), week 1 ([2]; vibegron 3 mg): 0.36 (−0.90, 1.62) bpm | SBP change from baseline, mean (95% CI) maximum, week 1 to 8 ([2]; vibegron 3 mg): 7.14 (5.18, 9.10) mm Hg | SBP change from baseline, mean (95% CI), week 1 ([2]; vibegron 3 mg): −0.35 (−2.34, 1.65) mm Hg | DBP change from baseline, mean (95% CI) maximum, week 1 to 8 ([2]; vibegron 15 mg): 6.37 (5.20, 7.53) mm Hg | DBP change from baseline, mean (95% CI), week 1 ([2]; vibegron 15 mg): 0.03 (−1.52, 1.59) mm Hg | HR change from baseline, mean (95% CI) maximum, week 1 to 8 ([2]; vibegron 15 mg): 6.56 (5.20, 7.92) bpm | HR change from baseline, mean (95% CI), week 1 ([2]; vibegron 15 mg): 0.35 (−1.15, 1.85) bpm | SBP change from baseline, mean (95% CI) maximum, week 1 to 8 ([2]; vibegron 15 mg): 8.93 (7.18, 10.67) mm Hg | SBP change from baseline, mean (95% CI), week 1 ([2]; vibegron 15 mg): −0.34 (−2.46, 1.78) mm Hg | subjects with orthostatic related AEs ([2]; vibegron 15 mg): 0.3% | DBP change from baseline, mean (95% CI) maximum, week 1 to 8 ([2]; vibegron 50 mg): 4.19 (3.10, 5.29) mm Hg | DBP change from baseline, mean (95% CI), week 1 ([2]; vibegron 50 mg): −0.70 (−2.07, 0.67) mm Hg | HR change from baseline, mean (95% CI) maximum, week 1 to 8 ([2]; vibegron 50 mg): 5.49 (4.28, 6.69) bpm | HR change from baseline, mean (95% CI), week 1 ([2]; vibegron 50 mg): 0.29 (−0.88, 1.46) bpm | SBP change from baseline, mean (95% CI) maximum, week 1 to 8 ([2]; vibegron 50 mg): 7.01 (5.31, 8.70) mm Hg | SBP change from baseline, mean (95% CI), week 1 ([2]; vibegron 50 mg): −0.79 (−2.65, 1.08) mm Hg | SBP and DBP, difference between placebo and vibegron in mean changes at Week 1 and mean maximum changes over 8 weeks ([2]; vibegron 50 mg and 100 mg): < 1 mm Hg | DBP change from baseline, mean (95% CI) maximum, week 1 to 8 ([2]; vibegron 100 mg): 4.80 (3.88, 5.72) mm Hg | DBP change from baseline, mean (95% CI), week 1 ([2]; vibegron 100 mg): −0.69 (−1.72, 0.34) mm Hg | HR change from baseline, mean (95% CI) maximum, week 1 to 8 ([2]; vibegron 100 mg): 6.12 (5.10, 7.15) bpm | HR change from baseline, mean (95% CI), week 1 ([2]; vibegron 100 mg): 0.35 (−0.69, 1.38) bpm | SBP change from baseline, mean (95% CI) maximum, week 1 to 8 ([2]; vibegron 100 mg): 6.51 (5.09, 7.93) mm Hg | SBP change from baseline, mean (95% CI), week 1 ([2]; vibegron 100 mg): −0.77 (−2.22, 0.68) mm Hg | percent of subjects with a change from baseline in DBP >15 mmHg ([2]; vibegron 100 mg): 1.3% | subjects with orthostatic related AEs ([2]; vibegron 100 mg): 1.1% | HR, mean maximum changes over 8 weeks, difference to placebo ([2]; vibegron, all doses): < 2 bpm | PVR category at Week 12 <100 mL, patients ([3]; Females): 96.8% | PVR category at Week 12 ≥100 mL to <200 mL, patients ([3]; Females): 3.0% | PVR category at Week 12 ≥200 mL to <350 mL, patients ([3]; Females): 0.2% | PVR category at Week 12 ≥350 mL, patients ([3]; Females): 0 | PVR, Mean Change from Baseline at Week 12 (SD) ([3]; Females): 0.1 (36.19) mL | PVR category at Week 12 <100 mL, patients ([3]; Males): 89.7% | PVR category at Week 12 ≥100 mL to <200 mL, patients ([3]; Males): 7.7% | PVR category at Week 12 ≥200 mL to <350 mL, patients ([3]; Males): 2.6% | PVR category at Week 12 ≥350 mL, patients ([3]; Males): 0 | PVR, Mean Change from Baseline at Week 12 (SD) ([3]; Males): 2.2 (48.45) mL | PVR category at Week 12 <100 mL, patients [3, 5]: 96.6% | PVR category at Week 12 ≥100 mL to <200 mL, patients [3, 5]: 0% | PVR category at Week 12 ≥200 mL to <350 mL, patients [3, 5]: 3.4% | PVR category at Week 12 ≥350 mL, patients [3, 5]: 0 | PVR, Mean Change from Baseline at Week 12 (SD) [3, 5]: −3.4 (42.45) mL | PVR category at Week 12 <100 mL, patients ([3]; all patients): 89.9% | PVR category at Week 12 ≥100 mL to <200 mL, patients ([3]; all patients): 3.5% | PVR category at Week 12 ≥200 mL to <350 mL, patients ([3]; all patients): 0.6% | PVR category at Week 12 ≥350 mL, patients ([3]; all patients): 0 | PVR, Mean Change from Baseline at Week 12 (SD) ([3]; all patients): 0.4 (38.27) mL | effect on QTc or blood pressure in thorough QT study ([4]; human, in vivo): no clinically meaningful effect on QTc or blood pressure | AUC, mean ± SD ([4]; vibegron 200 mg single dose): 2430 ± 974 ng·h/mL | Maximum mean placebo corrected change from baseline RR interval ([4]; vibegron 200 mg single dose): -84.36 ms | Maximum mean placebo corrected change from baseline diastolic BP ([4]; vibegron 200 mg single dose): 2.42 mmHg | Maximum mean placebo corrected change from baseline systolic BP ([4]; vibegron 200 mg single dose): 2.20 mmHg | AUC, mean ± SD ([4]; vibegron 400 mg single dose): 6800 ± 2300 ng·h/mL
